# Measured values reported in ChEMBL document CHEMBL2311494, “Syntheses and evaluation of the antioxidant activity of novel methoxypsoralen derivatives” (Eur J Med Chem, 2013).
# Activity calls are given as the source filed them. The rule behind the calls is not given here.
# Key:
# [1] = Antioxidant activity assessed as inhibition of AAPH-induced linoleic acid lipid peroxidation at 100 uM by spectrophotometric analysis; type: functional
# [2] = Inhibition of soybean LOX using sodium linoleate as substrate by spectrophotometric analysis; design: species or system Glycine max
# [3] = test system: Radical scavenging activity; assay: Antioxidant activity assessed as DPPH radical scavenging activity at 100 uM after 60 mins by spectrophotometric analysis; type: functional
# [4] = test system: Radical scavenging activity; assay: Antioxidant activity assessed as DPPH radical scavenging activity at 100 uM after 20 mins by spectrophotometric analysis; type: functional
# Rattus norvegicus [5] = assay: Toxicity against Fischer-344 rat up to 0.1 mmol/kg, ip; type: organism-based; conditions: in vivo
# [6] = Cytotoxicity against human 1BR3 cells assessed as cell viability at 50 uM after 24 hrs by MTT assay; type: cell-based; conditions: read-out: Activity
# [7] = Cytotoxicity against human 1BR3 cells assessed as cell viability at 100 uM after 24 hrs by MTT assay; type: cell-based; conditions: read-out: Activity
# [8] = Cytotoxicity against human 1BR3 cells assessed as cell viability at 20 uM after 24 hrs by MTT assay; type: cell-based; conditions: read-out: Activity
# [9] = Cytotoxicity against human 1BR3 cells assessed as cell viability at 1 uM after 24 hrs by MTT assay; type: cell-based; conditions: read-out: Activity
# [10] = Cytotoxicity against human 1BR3 cells assessed as cell viability at 10 uM after 24 hrs by MTT assay; type: cell-based; conditions: read-out: Activity
# Rattus norvegicus [11] = assay: Antiinflammatory activity in Fischer-344 rat assessed as inhibition of carrageenan-induced paw edema at 0.01 mmol/kg, ip after 3.5 hrs relative to control; type: functional; conditions: Fischer-344, ip
# Glycine max = assay: Inhibition of soybean LOX using sodium linoleate as substrate at 100 uM by spectrophotometric analysis
Structure (SMILES),inhibition [1],IC50 ([2]; read-out: IC50) [µM],Activity [3],Activity [4],Activity (Rattus norvegicus [5]),IC50 [2],"viability at 24 h, 50 µM [6] [%]","viability at 24 h, 100 µM [7] [%]","viability at 24 h, 20 µM [8] [%]","viability at 24 h, 1 µM [9] [%]","viability at 24 h, 10 µM [10] [%]",inhibition in vivo at 10 µmol/kg (Rattus norvegicus [11]) [%],inhibition (Glycine max) [%]
COc1c2occc2c(C(C)=O)c2ccc(=O)oc12,85%,100,8%,8%,–,–,–,–,–,–,–,–,–
COc1c2occc2c(-c2ccc(/C=C/C(=O)O)cc2)c2ccc(=O)oc12,12%,62,44%,41%,Non-toxic,–,–,–,–,–,–,–,–
CCOC(=O)/C=C/c1c(C)oc2c(C)c3oc(=O)cc(C)c3cc12,77%,–,60%,8%,Non-toxic,Not Active,–,–,–,–,–,–,–
COc1c2occc2c(-c2ccc(C(=O)O)cc2)c2ccc(=O)oc12,100%,–,15%,11%,Non-toxic,Not Active,–,–,–,–,–,–,–
COc1c2ccoc2c(/C=C/C(=O)OC(C)(C)C)c2oc(=O)ccc12,79%,–,inactive,inactive,Non-toxic,Not Active,–,–,–,–,–,–,–
CCCCOC(=O)/C=C/c1c2ccoc2c(OC)c2oc(=O)ccc12,79%,6,7%,5%,Non-toxic,–,98.9,90.3,99.6,96.7,99.3,57,–
Cc1oc2c(C)c3oc(=O)cc(C)c3cc2c1/C=C/C(=O)O,73%,–,11%,11%,Non-toxic,–,–,–,–,–,–,–,9
COc1ccc2c(c1)c(CC(=O)O)c(C)n2C(=O)c1ccc(Cl)cc1 [INDOMETHACIN],–,–,–,–,Non-toxic,–,–,–,–,–,–,47,–
Cc1oc2c(C)c3oc(=O)cc(C)c3cc2c1-c1ccc(C(=O)O)cc1,80%,–,inactive,inactive,Non-toxic,Not Active,–,–,–,–,–,–,–
O=c1ccc2c(Br)c3ccoc3c(O)c2o1,83%,50,43%,33%,–,–,–,–,–,–,–,–,–
CCOC(=O)/C=C/c1c2occc2c(OC)c2ccc(=O)oc12,8%,–,inactive,inactive,Non-toxic,Not Active,–,–,–,–,–,–,–
Cc1c(C)c2c(c(C)c1O)CCC(C)(C(=O)O)O2 (stereo unspecified),63%,–,–,–,–,–,–,–,–,–,–,–,–
Cc1cc2cc3c(C)cc(=O)oc3c(C)c2o1 [TRIOXSALEN],inactive,–,inactive,inactive,–,–,92.2,95.2,95.2,107,96.7,–,40
Cc1oc2c(C)c3oc(=O)cc(C)c3cc2c1Br,35%,–,100%,inactive,–,Not Active,–,–,–,–,–,–,–
COc1c2ccoc2c(-c2ccc(/C=C/C(=O)OC(C)(C)C)cc2)c2oc(=O)ccc12,77%,100,12%,8%,Non-toxic,–,–,–,–,–,–,–,–
Cc1oc2c(C)c3oc(=O)cc(C)c3cc2c1/C=C/C(=O)OC(C)(C)C,80%,9.4,11%,11%,Non-toxic,–,34.6,22.2,37,67.9,55.6,46,–
O=c1ccc2c(O)c3ccoc3cc2o1 [BERGAPTOL],95%,41.5,36%,34%,–,–,–,–,–,–,–,–,–
CCOC(=O)/C=C/c1c2ccoc2c(OC)c2oc(=O)ccc12,83%,75,6%,5%,Non-toxic,–,–,–,–,–,–,–,–

Structure (SMILES),inhibition [1],IC50 ([2]; read-out: IC50) [µM],Activity [3],Activity [4],Activity (Rattus norvegicus [5]),IC50 [2],"viability at 24 h, 50 µM [6] [%]","viability at 24 h, 100 µM [7] [%]","viability at 24 h, 20 µM [8] [%]","viability at 24 h, 1 µM [9] [%]","viability at 24 h, 10 µM [10] [%]",inhibition in vivo at 10 µmol/kg (Rattus norvegicus [11]) [%],inhibition (Glycine max) [%]
O=c1ccc2c(O)c3ccoc3c(Br)c2o1,81%,30.5,56%,20%,–,–,91.6,91,95.2,97,92.8,–,–
COc1c2ccoc2c(/C=C/C(=O)O)c2oc(=O)ccc12,55%,83,14%,14%,Non-toxic,–,–,–,–,–,–,–,–
COc1c2ccoc2c(-c2ccc(/C=C/C(=O)O)cc2)c2oc(=O)ccc12,55%,24,28%,22%,Non-toxic,–,18.5,13.3,24.7,65.6,55.6,–,–
COc1c2occc2c(/C=C/C(=O)O)c2ccc(=O)oc12,62%,50,7%,7%,Non-toxic,–,–,–,–,–,–,–,–
Cc1oc2c(C)c3oc(=O)cc(C)c3cc2c1-c1ccc(/C=C/C(=O)OC(C)(C)C)cc1,41%,–,inactive,inactive,Non-toxic,–,–,–,–,–,–,–,33
COc1c2occc2cc2ccc(=O)oc12 [METHOXSALEN],5%,50,16%,16%,–,–,92,89.6,96.7,101,98.1,–,–
O=c1ccc2cc3ccoc3c(O)c2o1 [XANTHOTOXOL],5%,89,22%,25%,–,–,–,–,–,–,–,–,–
COc1c2occc2c(/C=C/C(=O)OC(C)(C)C)c2ccc(=O)oc12,89%,–,3%,3%,Non-toxic,Not Active,–,–,–,–,–,–,–
COc1c2occc2c(-c2ccc(/C=C/C(=O)OC(C)(C)C)cc2)c2ccc(=O)oc12,72%,7.5,18%,15%,Non-toxic,–,66.3,46.3,67.9,98.8,74.1,26.2,–
CC(Cc1ccc(O)c(O)c1)C(C)Cc1ccc(O)c(O)c1 (stereo unspecified),–,–,83%,81%,–,–,–,–,–,–,–,–,–
COc1c2occc2c(/C=C/C(=O)OCc2cccc(Oc3ccccc3)c2)c2ccc(=O)oc12,89%,55,9%,7%,Non-toxic,–,–,–,–,–,–,–,–
COc1c2ccoc2cc2oc(=O)ccc12 [BERGAPTEN],49%,–,14%,14%,–,Not Active,91.7,88.9,99.4,105,102,–,–
CC(=O)c1c(C)oc2c(C)c3oc(=O)cc(C)c3cc12,67%,79,14%,14%,–,–,–,–,–,–,–,–,–
COc1c2ccoc2c(Br)c2oc(=O)ccc12,83%,90,7%,7%,–,–,–,–,–,–,–,–,–
COc1c2occc2c(Br)c2ccc(=O)oc12,62%,40,8%,8%,–,–,–,–,–,–,–,–,–
Cc1oc2c(C)c3oc(=O)cc(C)c3cc2c1-c1ccc(/C=C/C(=O)O)cc1,84%,–,inactive,inactive,Non-toxic,–,–,–,–,–,–,–,13
COc1c2ccoc2c(-c2ccc(C(=O)O)cc2)c2oc(=O)ccc12,66%,60,19%,22%,Non-toxic,–,–,–,–,–,–,–,–
